Assay results from patent publication US20200390755A1, “COMPOUND FOR TREATING NERVOUS SYSTEM DISEASES AND USE THEREOF” (SHAANXI MICOT TECHNOLOGY CO., LTD., priority 2018, published 2020).

Tests used:
[1] = test system: WT mice; experiment: Slope balance beam experiment, WT mice; assay type: in vivo, mouse; conditions: 5 mg/kg/d intragastric
Protocol: (§1) 7-week-old N171-82Q HD male mice were paired with female B6C3F1/J hybrid mice to obtain newborn mice. From 21 days of age, male mice were housed in separate cages. 0.5 cm of mouse tail tissue was removed to extract DNA to determine the genotype of the mouse, such that N171-82Q HD mice and WT mice needed for the experiment were obtained. The mice were randomly divided into WT Vehicle group (normal mice), WT test compound group (administration group of normal mice, 5 mg/kg/d, n=10), HD Vehicle group (blank group of HD mice, n=15), HD test compound group (administration groups 1-5 of HD mice, 5 mg/kg/d, n=10). The test compound was suspended in 1% CMC-Na solution and administered by intragastric administration until the end of the study. The weights of the mice were measured every week. Behavioral tests were performed at 12 weeks, 18 weeks, and 24 weeks of age to investigate motor function. At 20 weeks, 3 samples of tissue from each group were used for western blotting and immunohistochemistry. At 24 weeks, MRI scans were performed. At the end of the study, the effect of the test compound on the mortality of mice was evaluated. The software Sigmaplot 13.0 was used for statistical analysis of the data, and the data of each group was expressed as mean standard error (x±SEM). Behavioral test results were analyzed using two-way (genotype and processing factor) ANOVA and post-ho tests, the comparison and statistics of weight data were performed using two-way (genotype and age) ANOVA of repeated measures, and mortality was counted using Kaplan-Meier method. Other measurement data were analyzed by one-way ANOVA. P<0.05 was considered statistically significant. The motor function of mice was evaluated by the rotarod experiment and three types of balance beam experiments. The shorter the time for mouse to cross the balance beam, and the longer the time to drop, the stronger the coordination ability of the mouse. […] If the time for crossing the beams was greater than 60 seconds, it was recorded as 60 seconds.

[2] = test system: WT mice; experiment: Rotarod experiment, WT mice; assay type: in vivo, mouse; conditions: 5 mg/kg/d intragastric
Protocol: as §1, with “The time” for “If”, “mouse remained on” for “time for crossing”, “rod, i.e., drop latent period,” for “beams was greater than 60 seconds, it”, “to indicate its motor coordination ability. […]” for “as 60 seconds.”

With `O=c1cc(-c2ccc(N3CCCCC3)cc2)oc2c(O)c(O)ccc12` [Example 1, 7,8-dihydroxy-2-(4-(piperidin-1-yl)phenyl)-4H-chromen-4-one] the “Time for crossing the beams, slope balance beam” value (“Time … slope balance beam” for short) ([1]; 12 w) was 18.82 ± 28.33 s, the “Time … slope balance beam” value ([1]; 18 w) was 12.45 ± 6.23 s and the “Time … slope balance beam” value ([1]; 24 w) was 15.50 ± 6.11 s. The “Time to drop (drop latent period), rotarod” value (from here on “Time to drop”) ([2]; 12 w) was 98.33 ± 30.03 s, the “Time to drop” value ([2]; 18 w) was 78.97 ± 23.84 s and the “Time to drop” value ([2]; 24 w) was 73.72 ± 18.25 s.
